In patent EP4610269A1, “UROKINASE PLASMINOGEN ACTIVATOR SURFACE RECEPTOR (UPAR) LIGANDS FOR DIAGNOSTIC OR THERAPEUTIC USE” (3B Pharmaceuticals GmbH, priority 2024, dated 2025):
Like-named read-outs stand apart in the source and are kept apart here. *1 amine or outer side, *2 acyl side, *3 side chain or, on linkers, in order; H or OH if unused. Where a SMILES comes first, the peptide text is derived from it. Bridges are numbered along the chain shown (N, C = ends). [ ]: non-standard residue; d: D form. The star is where a group is joined. DOTA(Lu) = O=C1CN2CCN3CCN(CC(=O)*)CCN(CC2)CC(=O)[O][Lu]([O]1)[O]C(=O)C3; DOTA = O=C(O)CN1CCN(CC(=O)O)CCN(CC(=O)*)CCN(CC(=O)O)CC1; Pro(trans-4-F) = O=C(O)[C@@H]1C[C@@H](F)CN1; Phe(4-Cl) = N[C@@H](Cc1ccc(Cl)cc1)C(=O)O; Pro(cis-4-F) = O=C(O)[C@@H]1C[C@H](F)CN1; cisHyp = O=C(O)[C@@H]1C[C@H](O)CN1; Hyp = O=C(O)[C@@H]1C[C@@H](O)CN1; tBuAla = CC(C)(C)C[C@H](N)C(=O)O; 3Pal = N[C@@H](Cc1cccnc1)C(=O)O; Pentanoyl(4-Me) = CC(C)CCC(=O)*; Cit = NC(=O)NCCC[C@H](N)C(=O)O; Butoxycarbonyl = CCCCOC(=O)*; Chg = N[C@H](C(=O)O)C1CCCCC1; Phg = N[C@H](C(=O)O)c1ccccc1; X9 = OC[C@H](CS[*:1])N[*:2]; dNva = CCC[C@@H](N)C(=O)O; Nva = CCC[C@H](N)C(=O)O; Pentanoyl = CCCCC(=O)*; CO = O=C([*:1])[*:2]; X2 = CCCOC(=O)*; NHPr = CCCN*

Key:
human uPAR (uPAR-Fc) = target: T1, human uPAR (uPAR-Fc) (Homo sapiens, UniProt Q03405); test: Surface plasmon resonance (SPR) assay, single cycle kinetics; type: binding; details: pKD category for uPAR SPR activity assay, uPAR-Fc on Protein A-Chip, 25°C; for Kd: read-out: pKD CAT (converted)
T1 construct: comprising amino acids Leu23-Arg303 according to UniProt entry Q03405.1; purchased R&D Systems 10378-UK-100
T1 sequence (Q03405 23-303): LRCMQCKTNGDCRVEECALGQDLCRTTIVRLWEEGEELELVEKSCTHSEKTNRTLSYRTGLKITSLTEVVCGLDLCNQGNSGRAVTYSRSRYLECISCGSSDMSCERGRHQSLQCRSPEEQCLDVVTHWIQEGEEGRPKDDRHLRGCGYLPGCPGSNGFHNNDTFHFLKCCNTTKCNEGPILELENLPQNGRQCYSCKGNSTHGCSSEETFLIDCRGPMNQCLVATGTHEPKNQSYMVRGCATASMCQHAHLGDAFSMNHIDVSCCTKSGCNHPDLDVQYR
How it was run: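 uPAR-Fc (Leu23-Arg303 extracellular domains, human IgG1 Fc) captured on Protein A chip to ~2000 RU; single-cycle kinetics at 25°C in HEPES running buffer pH 7.4 with 0.1% DMSO. KD from double-referenced sensorgrams fitted to 1:1 Langmuir model, reported as pKD.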

[1] = target: T2, uPAR-expressing HEC-265 human endometrial adenocarcinoma cells (Homo sapiens, UniProt Q03405); test: Competitive FACS binding assay; details: pIC50 category of FACS binding
T2 construct: Cell surface uPAR-expressing HEC-265 human endometrial adenocarcinoma cells; host or cells: HEC-265
T2 sequence (Q03405 23-335): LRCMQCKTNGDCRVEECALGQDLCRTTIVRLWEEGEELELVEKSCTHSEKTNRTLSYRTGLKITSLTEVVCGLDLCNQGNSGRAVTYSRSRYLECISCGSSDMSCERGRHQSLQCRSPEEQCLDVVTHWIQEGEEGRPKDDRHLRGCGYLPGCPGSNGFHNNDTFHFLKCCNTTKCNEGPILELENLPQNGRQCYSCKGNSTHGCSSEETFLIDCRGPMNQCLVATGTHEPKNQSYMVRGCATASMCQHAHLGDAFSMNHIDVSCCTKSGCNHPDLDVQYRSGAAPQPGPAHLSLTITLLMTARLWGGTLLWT
How it was run: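 Competitive displacement of a 10 nM biotinylated peptide from HEC-265 cells (1 h, 4 °C, PBS/1% BSA), detected via APC-streptavidin by flow cytometry. pIC50 from four-parameter logistic fit of median fluorescence versus concentration.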

Compound	Kd (human uPAR (uPAR-Fc)) [nM]	IC50 [1] [nM]	Kd (human uPAR (uPAR-Fc); single cycle kinetics) [nM]	pKD CAT (human uPAR (uPAR-Fc))	pIC50 CAT [1]
CCCCC(=O)N[C@H]1CSSC[C@@H](C(N)=O)NC(=O)[C@H](CCC)NC(=O)[C@H]([C@@H](C)CC)NC(=O)[C@@H]2C[C@@H](O)CN2C(=O)[C@@H]2CCCN2C(=O)[C@H](Cc2cccnc2)NC(=O)[C@H](Cc2ccc(O)cc2)NC(=O)[C@H](CCCCNC(=O)CN2CCN(CC(=O)O)CCN(CC(=O)O)CCN(CC(=O)O)CC2)NC(=O)[C@H](CCCNC(N)=O)NC1=O [UPAR-253, Pent-[Cys-Cit-Lys(DOTA)-Tyr-Mpa-Pro-Hyp-Ile-Nva-Cys]-NH2] (Pentanoyl-C[Cit]K(DOTA)Y[3Pal]P[Hyp]I[Nva]C-NH2; disulfide 1-10)	1.58 to 10	≤ 10	–	–	–
CCCCOC(=O)N[C@H]1CSSC[C@@H](C(N)=O)NC(=O)[C@H](CCC)NC(=O)[C@H](C2CCCCC2)NC(=O)[C@@H]2C[C@@H](O)CN2C(=O)[C@@H]2C[C@H](F)CN2C(=O)[C@H](Cc2ccc(Cl)cc2)NC(=O)[C@H](Cc2ccc(O)cc2)NC(=O)[C@H](CCCCNC(=O)CN2CCN(CC(=O)O)CCN(CC(=O)O)CCN(CC(=O)O)CC2)NC(=O)[C@H](CCCNC(N)=O)NC1=O [UPAR-476, Butoc-[Cys-Cit-Lys(DOTA)-Tyr-Pcf-4Cfp-Hyp-Chg-Nva-Cys]-NH2] (Butoxycarbonyl-C[Cit]K(DOTA)Y[Phe(4-Cl)][Pro(cis-4-F)][Hyp][Chg][Nva]C-NH2; disulfide 1-10)	–	≤ 10	< 1.58	–	–
CCCNC(=O)N[C@H]1CSSC[C@@H](C(N)=O)NC(=O)[C@H](CCC)NC(=O)[C@H]([C@@H](C)CC)NC(=O)[C@@H]2C[C@@H](O)CN2C(=O)[C@@H]2CCCN2C(=O)[C@H](Cc2ccccc2)NC(=O)[C@H](Cc2ccc(O)cc2)NC(=O)[C@H](CCCCNC(=O)CN2CCN(CC(=O)O)CCN(CC(=O)O)CCN(CC(=O)O)CC2)NC(=O)[C@H](CCCNC(N)=O)NC1=O [UPAR-210, PrCAyl-[Cys-Cit-Lys(DOTA)-Tyr-Phe-Pro-Hyp-Ile-Nva-Cys]-NH2] ({NHPr-CO}-C[Cit]K(DOTA)YFP[Hyp]I[Nva]C-NH2; disulfide 1-10)	< 1.58	≤ 10	–	–	–
CC[C@H](C)[C@@H]1NC(=O)[C@@H](C)NC(=O)[C@@H]2CCCN2C(=O)[C@H](Cc2ccccc2)NC(=O)[C@H](Cc2ccc(O)cc2)NC(=O)[C@H](CCC(N)=O)NC(=O)[C@H](CCCNC(N)=O)NC(=O)[C@@H](NC(=O)CCC(C)C)CSSC[C@@H](C(N)=O)NC(=O)[C@H](CC(C)(C)C)NC1=O [UPAR-477, iHex-[Cys-Cit-Gln-Tyr-Phe-Pro-ala-Ile-Npg-Cys]-NH2] ({Pentanoyl(4-Me)}-C[Cit]QYFP[dA]I[tBuAla]C-NH2; disulfide 1-10)	–	39.8 to 100	10 to 100	–	–
CC[C@H](C)[C@@H]1NC(=O)[C@@H](C)NC(=O)[C@@H]2CCCN2C(=O)[C@H](Cc2ccccc2)NC(=O)[C@H](Cc2ccc(O)cc2)NC(=O)[C@H](CCC(N)=O)NC(=O)[C@H](CCCNC(N)=O)NC(=O)[C@@H](NC(=O)CCC(C)C)CSSC[C@@H](C(N)=O)NC(=O)[C@H](C)NC1=O [UPAR-402, iHex-[Cys-Cit-Gln-Tyr-Phe-Pro-ala-Ile-Ala-Cys]-NH2] ({Pentanoyl(4-Me)}-C[Cit]QYFP[dA]IAC-NH2; disulfide 1-10)	–	12.6 to 31.6	1.58 to 10	–	–
Pent-[Cys-Asn-Lys(LuDOTA)-Tyr-Phe-Pro-Hyp-Ile-Nva-Cys]-NH2 (Pentanoyl-CNK(DOTA(Lu))YFP[Hyp]I[Nva]C-NH2; disulfide 1-10; not fully specified; also: Lu(III) complexed by DOTA) [UPAR-335]	–	–	–	A (pKD values ≥ 8.8)	A (pIC50 values ≥8.0)
CC[C@H](C)[C@@H]1NC(=O)[C@H]([C@@H](C)CC)NC(=O)[C@@H](C)NC(=O)[C@@H]2CCCN2C(=O)[C@H](Cc2ccccc2)NC(=O)[C@H](Cc2ccc(O)cc2)NC(=O)[C@H](CCC(N)=O)NC(=O)[C@H](CCCNC(N)=O)NC(=O)[C@@H](NC(=O)CCC(C)C)CSSC[C@@H](C(N)=O)NC1=O [UPAR-405, iHex-[Cys-Cit-Gln-Tyr-Phe-Pro-ala-Ile-Ile-Cys]-NH2] ({Pentanoyl(4-Me)}-C[Cit]QYFP[dA]IIC-NH2; disulfide 1-10)	–	12.6 to 31.6	1.58 to 10	–	–
CCCCC(=O)N[C@H]1CSSC[C@@H](C(N)=O)NC(=O)[C@H](CCC)NC(=O)[C@H]([C@@H](C)CC)NC(=O)[C@@H]2C[C@H](O)CN2C(=O)[C@@H]2CCCN2C(=O)[C@H](Cc2ccccc2)NC(=O)[C@H](Cc2ccc(O)cc2)NC(=O)[C@H](CCCCNC(=O)CN2CCN(CC(=O)O)CCN(CC(=O)O)CCN(CC(=O)O)CC2)NC(=O)[C@H](CCCNC(N)=O)NC1=O [UPAR-214, Pent-[Cys-Cit-Lys(DOTA)-Tyr-Phe-Pro-Chy-Ile-Nva-Cys]-NH2] (Pentanoyl-C[Cit]K(DOTA)YFP[cisHyp]I[Nva]C-NH2; disulfide 1-10)	< 1.58	≤ 10	–	–	–
CCCCC(=O)N[C@H]1CSSC[C@@H](CO)NC(=O)[C@H](CCC)NC(=O)[C@H]([C@@H](C)CC)NC(=O)[C@@H]2C[C@@H](O)CN2C(=O)[C@@H]2CCCN2C(=O)[C@H](Cc2ccccc2)NC(=O)[C@H](Cc2ccc(O)cc2)NC(=O)[C@H](CCC(N)=O)NC(=O)[C@H](CCCNC(N)=O)NC1=O [UPAR-292, Pent-[Cys-Cit-Gln-Tyr-Phe-Pro-Hyp-Ile-Nva-Cysol]-OH] (Pentanoyl-C[Cit]QYFP[Hyp]I[Nva]; linker 1-C via X9)	< 1.58	≤ 10	–	–	–
CCCCC(=O)N[C@H]1CSSC[C@@H](C(N)=O)NC(=O)[C@H](CCC)NC(=O)[C@H]([C@@H](C)CC)NC(=O)[C@@H](CCC)NC(=O)[C@@H]2CCCN2C(=O)[C@H](Cc2ccccc2)NC(=O)[C@H](Cc2ccc(O)cc2)NC(=O)[C@H](CCC(N)=O)NC(=O)[C@H](CCCNC(=N)N)NC1=O [UPAR-322, Pent-[Cys-Arg-Gln-Tyr-Phe-Pro-nva-Ile-Nva-Cys]-NH2] (Pentanoyl-CRQYFP[dNva]I[Nva]C-NH2; disulfide 1-10)	1.58 to 10	12.6 to 31.6	–	–	–
CCCCC(=O)N[C@H]1CSSC[C@@H](C(N)=O)NC(=O)[C@H](CCC)NC(=O)[C@H]([C@@H](C)CC)NC(=O)[C@@H]2C[C@@H](O)CN2C(=O)[C@@H]2CCCN2C(=O)[C@H](Cc2ccccc2)NC(=O)[C@H](c2ccccc2)NC(=O)[C@H](CCC(N)=O)NC(=O)[C@H](CCCNC(=N)N)NC1=O [UPAR-196, Pent-[Cys-Arg-Gln-Phg-Phe-Pro-Hyp-Ile-Nva-Cys]-NH2] (Pentanoyl-CRQ[Phg]FP[Hyp]I[Nva]C-NH2; disulfide 1-10)	> 100	≥ 126	–	–	–
CC[C@H](C)[C@@H]1NC(=O)[C@@H](C)NC(=O)[C@@H]2CCCN2C(=O)[C@H](Cc2ccccc2)NC(=O)[C@H](Cc2ccc(O)cc2)NC(=O)[C@H](CCCCNC(=O)CN2CCN(CC(=O)O)CCN(CC(=O)O)CCN(CC(=O)O)CC2)NC(=O)[C@H](CCCNC(=N)N)NC(=O)[C@@H](NC(=O)[C@H](CC(C)C)NC(C)=O)CSSC[C@@H](C(N)=O)NC(=O)[C@H](CC(C)C)NC1=O [UPAR-162, Ac-Leu-[Cys-Arg-Lys(DOTA)-Tyr-Phe-Pro-ala-Ile-Leu-Cys]-NH2] (Ac-LCRK(DOTA)YFP[dA]ILC-NH2; disulfide 2-11)	< 1.58	≤ 10	–	–	–
CCCCC(=O)N[C@H]1CSSC[C@@H](C(N)=O)NC(=O)[C@H](CCC)NC(=O)[C@H]([C@@H](C)CC)NC(=O)[C@@H]2C[C@@H](O)CN2C(=O)[C@@H]2CCCN2C(=O)[C@H](Cc2ccccc2)NC(=O)[C@H](Cc2c[nH]c3ccccc23)NC(=O)[C@H](CCC(N)=O)NC(=O)[C@H](CCCNC(=N)N)NC1=O [UPAR-401, Pent-[Cys-Arg-Gln-Trp-Phe-Pro-Hyp-Ile-Nva-Cys]-NH2] (Pentanoyl-CRQWFP[Hyp]I[Nva]C-NH2; disulfide 1-10)	–	≤ 10	< 1.58	–	–
CC[C@H](C)[C@@H]1NC(=O)[C@@H](C)NC(=O)[C@@H]2C[C@@H](F)CN2C(=O)[C@H](Cc2ccccc2)NC(=O)[C@H](Cc2ccc(O)cc2)NC(=O)[C@H](CCC(N)=O)NC(=O)[C@H](CCCNC(N)=O)NC(=O)[C@@H](NC(=O)CCC(C)C)CSSC[C@@H](C(N)=O)NC(=O)[C@H](CC(C)C)NC1=O [UPAR-178, iHex-[Cys-Cit-Gln-Tyr-Phe-4Tfp-ala-Ile-Leu-Cys]-NH2] ({Pentanoyl(4-Me)}-C[Cit]QYF[Pro(trans-4-F)][dA]ILC-NH2; disulfide 1-10)	1.58 to 10	≤ 10	–	–	–
CCCOC(=O)N[C@H]1CSSC[C@@H](C(N)=O)NC(=O)[C@H](CCC)NC(=O)[C@H]([C@@H](C)CC)NC(=O)[C@@H]2C[C@@H](O)CN2C(=O)[C@@H]2CCCN2C(=O)[C@H](Cc2ccccc2)NC(=O)[C@H](Cc2ccc(O)cc2)NC(=O)[C@H](CCCCNC(=O)CN2CCN(CC(=O)O)CCN(CC(=O)O)CCN(CC(=O)O)CC2)NC(=O)[C@H](CCCNC(N)=O)NC1=O [UPAR-267, Prpoc-[Cys-Cit-Lys(DOTA)-Tyr-Phe-Pro-Hyp-Ile-Nva-Cys]-NH2] (X2-C[Cit]K(DOTA)YFP[Hyp]I[Nva]C-NH2; disulfide 1-10)	10 to 100	39.8 to 100	–	–	–
